Key:
[1] = test system: human aortic endothelial cells (HAE cells); experiment: Neutrophil-mediated cytotoxicity assay (51Cr-release); details: 50% inhibition of specific cytotoxicity; human neutrophil-mediated killing of human aortic endothelial cells
From the text: (§1) Human peripheral blood neutrophils were isolated from fresh venous blood of healthy volunteers. EDTA anticoagulated blood was separated using a single step density centrifugation (Polymorphprep; Nycomed Pharma, Oslo, Norway) followed by several washes in Hank's balanced salt solution supplemented with 0.5% BSA (Bovine Serum Albumin) (HBSSB) and the hypertonic lysis of erythrocytes. Neutrophils were counted via Coulter electronic particle counter and resuspended in HBSSB supplemented with 25% Endothelial Basal Medium (EBM), (Clonetics Corporation, San Diego, CA) at a concentration of 5 x 10^6 polymorphonuclear leukocytes (PMN)/ml.
(§2) The cytotoxic effects of stimulated neutrophils on endothelial cells were determined using a ^51Cr-release assay as previously described (Moldow, C.F., and Jacob, H.S. (1984) Methods Enzymol. 105, 378-385). Confluent monolayers of human aortic endothelial cells (HAE cells; Clonetics) grown in 96-well culture plates were prelabeled with 1 µCi/well ^51Cr (Na2 ^51Cr2O4, New England Nuclear, Boston, MA). The cells were incubated for 18 h at 37°C, then cytokine-activated with 10 Units/well human recombinant tumor necrosis factor-a (hrTNF-α; Monsanto Company, St. Louis, MO) for 4 h at 37°C. The cells were washed twice to remove unincorporated radioactivity with Hank's balanced salt solution supplemented with 0.5% BSA. To assess inhibition of PMN-mediated cytotoxicity, manganese(II) complexes at various doses (0-300 µM) were added to five replicate wells/dose of HAE cells immediately prior to the addition of PMN. Suspensions of PMN in HBSSB supplemented with 25% Endothelial Basal Medium were added to the wells at a neutrophil to endothelial cell ratio of 50:1. The PMN were allowed to adhere for 15 minutes at 37°C, primed with 125 Units/well hrTNF-α (Berkow, R.L., Wang, D., Larrick, J.W., Dodson, R.W., and Howard, T.H. (1987) J. Immunol. 139, 3783-3791; Varani, J.; Bendelow, M. J. Sealey, D. E.; Kunkel, S. L.; Gannon, D. E.; Ryan, U.S.; and Ward, P.A. (1987) Lab. Invest., 59, 292-295) for 10 minutes, and stimulated with human recombinant complement component C5a (Sigma Chemical, St. Louis, MO). […] After an additional incubation of 4 hours at 37°C, 200 µl of the 250 µl reaction volume (soluble fraction) was removed to a tube for counting. The cells were washed twice with 200 µl HBSSB (nonadherent fraction) and the washes pooled with the soluble fraction. The adherent fraction was collected by lysing the HAE cells with 200 µl 1N NaOH for 30 minutes and removing to separate tubes. Both fractions were analyzed by gamma scintillation spectrometry. The percentage cytotoxicity was calculated by the following formula: % Cytotoxicity =(cpm (soluble + nonadherent fractions))/(cpm (soluble + nonadherent + adherent fractions))x 100 [formula] Specific cytotoxicity reflects the difference between ^51Cr-release induced by stimulated PMN and unstimulated PMN. The IC50 values for the manganese(II) complexes for protection against neutrophil-mediated cytotoxicity were determined from a computer-driven logistic regression equation from a plot of % specific cytotoxicity versus the concentration of the manganese(II) complex.

conscious rats = experiment: Rat hemodynamic model (mean blood pressure, conscious rats); format: in vivo, male Sprague-Dawley rats
Method: Catheters were inserted into the femoral vein, femoral artery and bladder of male Sprague-Dawley rats (250-325 grams total body weight) anesthetized with ether. The rats were then placed in individual restraining cages and allowed to regain consciousness. Blood pressure was measured by a standard pressure transducer and physiograph. Increasing doses of the manganese(II) complex of Example 1 (prepared in an aqueous solution) were given as single bolus injections. The results of the tests can be found in Figure 1. The blood pressure values represent the mean arterial blood pressure from the mean values of 3 rats. […] Thus, the potentiation by the complex of Example 1 of the vasorelaxant effects of NO is consistent with the proposed mechanism of action as an SOD mimic.

rat aortic rings = experiment: Rat aortic ring assay
Method: The aortic rings were prepared using a Furchgott procedure (described in Furchgott, R.F., "Role of Endothelium in Response of Vascular Smooth Muscle", Circ. Res. 53: 557-573, 1983) with changes in tension recorded. In all preparations, initial tension (1.5 grams) was produced with 30 mM KCl.

[2] = target: T1, nitric oxide synthase (NOS) (Mus musculus, UniProt P29477); experiment: NOS activity measured by citrulline production; format: biochemical
T1 construct: crude NOS (prepared from endotoxin-treated RAW 264.7 cells); endogenous in cells; host or cells: endotoxin-treated RAW 264.7 cells (crude enzyme preparation)
T1 sequence (P29477 1-1144): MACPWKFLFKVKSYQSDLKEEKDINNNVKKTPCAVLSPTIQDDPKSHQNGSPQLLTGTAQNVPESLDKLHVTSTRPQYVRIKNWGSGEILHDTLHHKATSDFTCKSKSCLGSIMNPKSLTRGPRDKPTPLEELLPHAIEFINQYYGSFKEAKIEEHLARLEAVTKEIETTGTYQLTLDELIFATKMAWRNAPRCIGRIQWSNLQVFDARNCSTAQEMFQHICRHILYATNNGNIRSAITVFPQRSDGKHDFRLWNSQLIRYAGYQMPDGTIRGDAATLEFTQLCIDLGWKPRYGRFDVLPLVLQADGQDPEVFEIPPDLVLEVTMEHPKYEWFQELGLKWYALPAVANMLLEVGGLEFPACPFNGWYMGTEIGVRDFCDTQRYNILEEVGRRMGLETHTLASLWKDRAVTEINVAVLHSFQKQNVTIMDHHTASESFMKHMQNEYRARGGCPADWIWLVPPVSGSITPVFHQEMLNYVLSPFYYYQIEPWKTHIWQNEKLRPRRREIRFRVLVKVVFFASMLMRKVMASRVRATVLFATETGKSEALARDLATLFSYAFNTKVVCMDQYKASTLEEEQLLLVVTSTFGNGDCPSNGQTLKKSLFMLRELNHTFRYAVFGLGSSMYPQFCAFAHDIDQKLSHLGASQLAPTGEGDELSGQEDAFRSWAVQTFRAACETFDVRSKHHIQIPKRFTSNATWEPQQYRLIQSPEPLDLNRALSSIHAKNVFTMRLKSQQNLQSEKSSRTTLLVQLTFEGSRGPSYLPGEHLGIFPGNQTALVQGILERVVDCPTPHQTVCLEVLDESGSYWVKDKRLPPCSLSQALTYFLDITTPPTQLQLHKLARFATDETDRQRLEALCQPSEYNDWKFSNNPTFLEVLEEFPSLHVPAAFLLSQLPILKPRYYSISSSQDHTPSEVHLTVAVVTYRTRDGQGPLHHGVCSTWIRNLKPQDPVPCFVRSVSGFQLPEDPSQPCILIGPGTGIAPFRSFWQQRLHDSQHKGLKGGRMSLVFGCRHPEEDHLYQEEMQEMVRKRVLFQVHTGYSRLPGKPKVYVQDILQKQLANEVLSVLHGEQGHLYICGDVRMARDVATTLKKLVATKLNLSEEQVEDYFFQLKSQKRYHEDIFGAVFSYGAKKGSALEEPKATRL

[3] = test system: colonic myeloperoxidase activity; experiment: Mouse acetic acid-induced colitis model (colonic myeloperoxidase); format: in vivo; details: 30 mg/kg dose, intracolonic, 30 minutes before acetic acid, tissue after 24 hours
Method: Mouse colitis model. […] Mice were lightly anesthetized. A solution of 3% (v/v) aqueous acetic acid was instilled intracolonically via a flexible polyethylene tube. After 24 hours, the animals were killed and colonic tissue samples were obtained. Tissue samples were assessed biochemically for the neutrophil marker enzyme, myeloperoxidase (MPO). The colonic tissue samples were minced, homogenized in detergent, and sonicated. After centrifugation, enzyme activities were assayed spectrophotometrically by determining the decomposition of peroxide using o-dianisidine as the hydrogen donor. Data was obtained as the absorbance (460 nm) at 20 minutes. Test agents were given intracolonically at a dose of 30 mg/kg body weight 30 minutes before acetic acid instillation as a sonicated suspension in 0.5% aqueous methyl cellulose. Vehicle was given to appropriate acetic acid control animals. Normal tissue was obtained from control animals which received only vehicle. Colonic myeloperoxidase activities were determined as units/g wet weight of tissue. Reduction of colonic myeloperoxidase activity by test agents in acetic acid-treated mice is expressed as % inhibition (Table 2). Colonic myeloperoxidase activity correlated with the degree of tissue inflammation as assessed by visual and histological analysis.

[4] = test system: human aortic endothelial cells (HAE cells)
From the text: as §1, §2

[5] = test system: rat lung fibroblast cells; experiment: Nitric oxide: rat lung fibroblast cGMP reporter assay; format: cell-based; details: for cGMP: mean
Method: The assay is described in Ishii, I., Sheng, H., Warner, T.D., Förstermann, V. and Murad, F., Am. J. Physiol., 261 (Heart Circ. Physiol. 30); H598-H603, 1991 modified in that the nitric oxide synthase (NOS) is added directly to the cells. Rat lung fibroblast cells were grown to confluence on a 48-well tissue culture plate containing Earle's salts medium. The medium is removed and the cells washed twice with minimal essential medium buffered with Earle's salts. A nitric oxide (NO) generating system consisting of enzyme (NOS), nicotinamide adenine dinucleotide phosphate (NADPH), arginine and required cofactors, such as tetrahydrobiopterin and flavin adenine dinucleotide (FAD) is subsequently added to each well. In cases where the complex of Example 1 was added, addition occurred with the NO generating system. After five minutes of incubation, each reaction is terminated, cellular cGMP extracted and measured by radioimmunoassay.
The capacity of the rat lung fibroblast cells to respond to NO was confirmed by adding sodium nitroprusside (SNP), a compound which spontaneously degrades to NO and results in increased cGMP levels. Next, crude NOS (prepared from endotoxin-treated RAW 264.7 cells) was added to the rat lung fibroblast cells to determine their response to enzymatically generated NO. A dose-dependent increase in cGMP with increasing amounts of enzyme was obtained. Superoxide dismutase (SOD) addition augmented cellular cGMP levels.

[6] = Stopped-flow kinetic analysis of catalytic dismutation of superoxide; format: biochemical; details: catalytic rate constant for dismutation of superoxide, pH 8.1 and 21°C
From the text: Stopped-flow kinetic analysis is an accurate and direct method for quantitatively monitoring the decay rates of superoxide in water.
For the attainment of consistent and accurate measurements all reagents were biologically clean and metal-free. To achieve this, all buffers (Calbiochem) were biological grade, metal-free buffers and were handled with utensils which had been washed first with 0.1 N HCl, followed by purified water, followed by a rinse in a 10^-4 M EDTA bath at pH 8, followed by a rinse with purified water and dried at 65°C for several hours. Dry DMSO solutions of potassium superoxide (Aldrich) were prepared under a dry, inert atmosphere of argon in a Vacuum Atmospheres dry glovebox using dried glassware. The DMSO solutions were prepared immediately before every stopped-flow experiment. A mortar and pestle were used to grind the yellow solid potassium superoxide (~100 mg). The powder was then ground with a few drops of DMSO and the slurry transferred to a flask containing an additional 25 ml of DMSO. The resultant slurry was stirred for 1/2 h and then filtered. […] These solutions were transferred to a glovebag under nitrogen in sealed vials prior to loading the syringe under nitrogen. It should be noted that the DMSO/superoxide solutions are extremely sensitive to water, heat, air, and extraneous metals. A fresh, pure solution has a very slight yellowish tint.
Water for buffer solutions was delivered from an in-house deionized water system to a Barnstead Nanopure Ultrapure Series 550 water system and then double distilled, first from alkaline potassium permanganate and then from a dilute EDTA solution. For example, a solution containing 1.0 g of potassium permanganate, 2 liters of water and additional sodium hydroxide necessary to bring the pH to 9.0 were added to a […] fitted with a solvent distillation head. This distillation will oxidize any trace of organic compounds in the water. The final distillation was carried out under nitrogen in a 2.5-liter flask containing 1500 ml of water from the first still and 1.0 x 10^-6M EDTA. This step will remove remaining trace metals from the ultrapure water. To prevent EDTA mist from volatilizing over the reflux arm to the still head, the 40-cm vertical arm was packed with glass beads and wrapped with insulation. This system produces deoxygenated water that can be measured to have a conductivity of less than 2.0 nanomhos/cm^2.
The stopped-flow spectrometer system was designed and manufactured by Kinetic Instruments Inc. (Ann Arbor, MI) and was interfaced to a MAC IICX personal computer. The software for the stopped-flow analysis was provided by Kinetics Instrument Inc. and was written in QuickBasic with MacAdios drivers. Typical injector volumes (0.10 ml of buffer and 0.006 ml of DMSO) were calibrated so that a large excess of water over the DMSO solution were mixed together. […] Aqueous solutions to be mixed with the DMSO solution of superoxide were prepared using 80 mM concentrations of the Hepes buffer, pH 8.1 (free acid + Na form). One of the reservoir syringes was filled with 5 ml of the DMSO solution while the other was filled with 5 ml of the aqueous buffer solution. The entire injection block, mixer, and spectrometer cell were immersed in a thermostatted circulating water bath with a temperature of 21.0 ± 0.5°C.
Prior to initiating data collection for a superoxide decay, a baseline average was obtained by injecting several shots of the buffer and DMSO solutions into the mixing chamber. These shots were averaged and stored as the baseline.

Molecule	IC50 [1] [µM]	% Inhibition of Colonic Myeloperoxidase Activity [3] [%]	protection against human neutrophil-mediated cytotoxicity, in words [4]	kCAT [6] [M⁻¹ s⁻¹]	also measured
C1CNCCNCCNCCNCCN1.[Cl-].[Cl-].[Mn+2] [Example 1, [Manganese(II)dichloro(1,4,7,10,13-Pentaazacyclopentadecane)]]	25	69	protective against human neutrophil-mediated cytotoxicity	–	effect on mean blood pressure, in words (conscious rats; increasing doses as single bolus injections, aqueous solution, data in Figure 1): blood pressure drop; duration of the blood pressure drop (conscious rats; single bolus injections): 3 to 5 min; effect on the relaxation response to acetylcholine, in words (rat aortic rings; complex 0.5 and 5.0 micromolar, acetylcholine 0.1 and 1.0 micromolar): additive effect; effect on the relaxation response to sodium nitroprusside, in words (rat aortic rings; complex 0.5 and 5.0 micromolar, sodium nitroprusside 0.001 to 10 micromolar): additive effect; maximum relaxation (rat aortic rings; endothelium and dose-dependent from 0.05 to 300 micromolar, 30 mM KCl): 45%; augmentation of cellular cGMP levels (rat aortic rings; rat aortic rings, 5 micromolar for 1 min.): 2.5 fold; NOS activity as measured by citrulline production [2]: does not increase NOS activity; cGMP ([5]; NOS + complex 0.0001mM): 19.3 fmol/well/10; cGMP ([5]; NOS + complex 0.001mM): 21.7 fmol/well/10; cGMP ([5]; NOS + complex 0.01mM): 43.7 fmol/well/10; cGMP ([5]; NOS + complex 0.10mM): 54.7 fmol/well/10; cGMP ([5]; NOS + complex 1.0mM): 60.3 fmol/well/10; cGMP ([5]; complex alone, 1mM, no NOS): 11.7 fmol/well/10; basal levels of cGMP, in words ([5]; complex alone, 1 millimolar): not increased; cGMP levels, in words ([5]; with NO generating system, 1 micromolar to 1 millimolar): dose-dependent increase in cGMP levels
C1CCC(CC2CNCCNCCNCCNCCN2)CC1.[Cl-].[Cl-].[Mn+2] (centres unmarked) [Example 7, [Manganese(II)dichloro(2-Cyclohexylmethyl-1,4,7,10,13-pentaazacyclopentadecane)]]	22	77	protective against human neutrophil-mediated cytotoxicity	–	–
CC1CNCCNCCNCCNCCN1.[Cl-].[Cl-].[Mn+2] (centres unmarked) [Example 2, [Manganese(II)dichloro(2-Methyl-1,4,7,10,13-pentaazacyclopentadecane)]]	–	47	protective against human neutrophil-mediated cytotoxicity	2.67e+07	–
[Manganese(II)diacetate(1,4,7,10,13-Pentaazacyclopentadecane)] [Example 8]	–	32	protective against human neutrophil-mediated cytotoxicity	–	–
[Manganese(II)dichloro((S)-2-Methyl-1,4,7,10,13-pentaazacyclopentadecane)] [Example 3]	37	42	protective against human neutrophil-mediated cytotoxicity	2.39e+07	–
C1CNCCNCCNCCNCCN1.F[P-](F)(F)(F)(F)F.[Cl][Mn+] [Example 27, [Manganese(II)chloro(1,4,7,10,13-Pentaazacyclopentadecane)]Hexafluorophosphate]	26	–	protective against human neutrophil-mediated cytotoxicity	2.4e+07	–
CC(C)CC1CNCCNCCNCCNCCN1.[Cl-].[Cl-].[Mn+2] (centres unmarked) [Example 5, [Manganese(II)dichloro(2-(2-Methylpropyl)-1,4,7,10,13-pentaazacyclopentadecane)]]	–	70	protective against human neutrophil-mediated cytotoxicity	–	–
